Measured values published in ChEMBL document CHEMBL3867433, “Synthesis and antimicrobial activity of styryl/pyrrolyl/pyrazolyl sulfonylmethyl-1,3,4-oxadiazolyl amines and styryl/pyrrolyl/pyrazolyl sulfonylmethyl-1,3,4-thiadiazolyl amines” (2016).
≈ marks a conversion by molar mass, not a printed value.

Key:
Format in all cases: functional
Klebsiella pneumoniae [1] = test: Antibacterial activity against Klebsiella pneumoniae at 50 ug/well after 24 hrs by agar well diffusion method; details: read-out: DIZ
[2] = Antifungal activity against Penicillium chrysogenum assessed as inhibition of spore germination at 25 ug/well after 48 hrs by agar well diffusion method
Pseudomonas aeruginosa [3] = test: Bactericidal activity against Pseudomonas aeruginosa after 24 hrs
Pseudomonas aeruginosa [4] = test: Antibacterial activity against Pseudomonas aeruginosa at 50 ug/well after 24 hrs by agar well diffusion method; details: read-out: DIZ
Pseudomonas aeruginosa [5] = test: Antibacterial activity against Pseudomonas aeruginosa after 24 hrs by broth dilution method
Aspergillus niger [6] = test: Antifungal activity against Aspergillus niger assessed as inhibition of spore germination at 12.5 ug/well after 48 hrs by agar well diffusion method; details: read-out: DIZ
Staphylococcus aureus [7] = test: Antibacterial activity against Staphylococcus aureus at 12.5 ug/well after 24 hrs by agar well diffusion method; details: read-out: DIZ
Aspergillus niger [8] = test: Fungicidal activity against Aspergillus niger assessed as inhibition of spore germination after 48 hrs
Aspergillus niger [9] = test: Antifungal activity against Aspergillus niger assessed as inhibition of spore germination at 25 ug/well after 48 hrs by agar well diffusion method; details: read-out: DIZ
Staphylococcus aureus [10] = test: Antibacterial activity against Staphylococcus aureus after 24 hrs by broth dilution method
Bacillus subtilis [11] = test: Antibacterial activity against Bacillus subtilis at 25 ug/well after 24 hrs by agar well diffusion method; details: read-out: DIZ
Bacillus subtilis [12] = test: Antibacterial activity against Bacillus subtilis at 12.5 ug/well after 24 hrs by agar well diffusion method; details: read-out: DIZ
Bacillus subtilis [13] = test: Antibacterial activity against Bacillus subtilis at 100 ug/well after 24 hrs by agar well diffusion method; details: read-out: DIZ
Staphylococcus aureus [14] = test: Antibacterial activity against Staphylococcus aureus at 100 ug/well after 24 hrs by agar well diffusion method; details: read-out: DIZ
Klebsiella pneumoniae [15] = test: Bactericidal activity against Klebsiella pneumoniae after 24 hrs
Bacillus subtilis [16] = test: Bactericidal activity against Bacillus subtilis after 24 hrs
Klebsiella pneumoniae [17] = test: Antibacterial activity against Klebsiella pneumoniae at 100 ug/well after 24 hrs by agar well diffusion method; details: read-out: DIZ
Aspergillus niger [18] = test: Antifungal activity against Aspergillus niger assessed as inhibition of spore germination at 50 ug/well after 48 hrs by agar well diffusion method; details: read-out: DIZ
[19] = Antifungal activity against Penicillium chrysogenum assessed as inhibition of spore germination at 100 ug/well after 48 hrs by agar well diffusion method
Bacillus subtilis [20] = test: Antibacterial activity against Bacillus subtilis after 24 hrs by broth dilution method
Penicillium chrysogenum [21] = test: Ratio of MFC to MIC for Penicillium chrysogenum
Bacillus subtilis [22] = test: Antibacterial activity against Bacillus subtilis at 50 ug/well after 24 hrs by agar well diffusion method; details: read-out: DIZ
Pseudomonas aeruginosa [23] = test: Antibacterial activity against Pseudomonas aeruginosa at 25 ug/well after 24 hrs by agar well diffusion method; details: read-out: DIZ
Klebsiella pneumoniae [24] = test: Antibacterial activity against Klebsiella pneumoniae after 24 hrs by broth dilution method
Pseudomonas aeruginosa [25] = test: Antibacterial activity against Pseudomonas aeruginosa at 100 ug/well after 24 hrs by agar well diffusion method; details: read-out: DIZ
Klebsiella pneumoniae [26] = test: Antibacterial activity against Klebsiella pneumoniae at 12.5 ug/well after 24 hrs by agar well diffusion method; details: read-out: DIZ
Aspergillus niger [27] = test: Antifungal activity against Aspergillus niger assessed as inhibition of spore germination after 48 hrs by broth dilution method
Staphylococcus aureus [28] = test: Bactericidal activity against Staphylococcus aureus after 24 hrs
Klebsiella pneumoniae [29] = test: Antibacterial activity against Klebsiella pneumoniae at 25 ug/well after 24 hrs by agar well diffusion method; details: read-out: DIZ
[30] = Antifungal activity against Penicillium chrysogenum assessed as inhibition of spore germination at 50 ug/well after 48 hrs by agar well diffusion method
Aspergillus niger [31] = test: Antifungal activity against Aspergillus niger assessed as inhibition of spore germination at 100 ug/well after 48 hrs by agar well diffusion method; details: read-out: DIZ
Staphylococcus aureus [32] = test: Antibacterial activity against Staphylococcus aureus at 25 ug/well after 24 hrs by agar well diffusion method; details: read-out: DIZ
Pseudomonas aeruginosa [33] = test: Antibacterial activity against Pseudomonas aeruginosa at 12.5 ug/well after 24 hrs by agar well diffusion method; details: read-out: DIZ
[34] = Antifungal activity against Penicillium chrysogenum assessed as inhibition of spore germination after 48 hrs by broth dilution method
Penicillium chrysogenum [35] = test: Fungicidal activity against Penicillium chrysogenum assessed as inhibition of spore germination after 48 hrs
Pseudomonas aeruginosa [36] = test: Ratio of MBC to MIC for Pseudomonas aeruginosa
Staphylococcus aureus [37] = test: Antibacterial activity against Staphylococcus aureus at 50 ug/well after 24 hrs by agar well diffusion method; details: read-out: DIZ
[38] = Antifungal activity against Penicillium chrysogenum assessed as inhibition of spore germination at 12.5 ug/well after 48 hrs by agar well diffusion method

MIC (Pseudomonas aeruginosa [5]) [µg/mL]	MIC (Staphylococcus aureus [10]) [µg/mL]	MIC (Bacillus subtilis [20]) [µg/mL]	Compound	zone of inhibition at 50 µg/disc (Klebsiella pneumoniae [1]) [mm]	inhibition zone (IZ) [2] [mm]	MBC (Pseudomonas aeruginosa [3]) [µg/mL]	zone of inhibition at 50 µg/disc (Pseudomonas aeruginosa [4]) [mm]	zone of inhibition at 12.5 µg/disc (Aspergillus niger [6]) [mm]	zone of inhibition at 12.5 µg/disc (Staphylococcus aureus [7]) [mm]	MFC (Aspergillus niger [8]) [µg/mL]	zone of inhibition at 25 µg/disc (Aspergillus niger [9]) [mm]	zone of inhibition at 25 µg/disc (Bacillus subtilis [11]) [mm]	zone of inhibition at 12.5 µg/disc (Bacillus subtilis [12]) [mm]	zone of inhibition at 100 µg/disc (Bacillus subtilis [13]) [mm]	zone of inhibition at 100 µg/disc (Staphylococcus aureus [14]) [mm]	MBC (Klebsiella pneumoniae [15]) [µg/mL]	MBC (Bacillus subtilis [16]) [µg/mL]	zone of inhibition at 100 µg/disc (Klebsiella pneumoniae [17]) [mm]	zone of inhibition at 50 µg/disc (Aspergillus niger [18]) [mm]	inhibition zone (IZ) [19] [mm]	also measured
25 (≈ 70.5 µM)	50 (≈ 141 µM)	50 (≈ 141 µM)	Nc1nnc(CS(=O)(=O)c2c[nH]cc2-c2ccc(Cl)cc2)s1	32	32	100 (≈ 282 µM)	24	15	17	100 (≈ 282 µM)	17	22	21	25	23	> 100	> 200	34	19	37	Ratio (Penicillium chrysogenum [21]): >2; zone of inhibition at 50 µg/disc (Bacillus subtilis [22]): 23 mm; zone of inhibition at 25 µg/disc (Pseudomonas aeruginosa [23]): 22 mm; MIC (Klebsiella pneumoniae [24]): 25 µg/mL (≈ 70.5 µM); zone of inhibition at 100 µg/disc (Pseudomonas aeruginosa [25]): 26 mm; zone of inhibition at 12.5 µg/disc (Klebsiella pneumoniae [26]): 28 mm; MIC (Aspergillus niger [27]): 25 µg/mL (≈ 70.5 µM); MBC (Staphylococcus aureus [28]): > 200 µg/mL; zone of inhibition at 25 µg/disc (Klebsiella pneumoniae [29]): 30 mm; inhibition zone (IZ) [30]: 34 mm; zone of inhibition at 100 µg/disc (Aspergillus niger [31]): 21 mm; zone of inhibition at 25 µg/disc (Staphylococcus aureus [32]): 19 mm; zone of inhibition at 12.5 µg/disc (Pseudomonas aeruginosa [33]): 20 mm; MIC [34]: 50 µg/mL (≈ 141 µM); MFC (Penicillium chrysogenum [35]): > 200 µg/mL; Ratio (Pseudomonas aeruginosa [36]): >2; zone of inhibition at 50 µg/disc (Staphylococcus aureus [37]): 21 mm; inhibition zone (IZ) [38]: 29 mm
12.5 (≈ 35.1 µM)	50 (≈ 141 µM)	25 (≈ 70.3 µM)	Nc1nnc(CS(=O)(=O)c2n[nH]cc2-c2ccc(Cl)cc2)s1	34	33	50 (≈ 141 µM)	28	24	21	100 (≈ 281 µM)	26	27	26	30	25	> 100	100 (≈ 281 µM)	36	28	38	Ratio (Penicillium chrysogenum [21]): >2; zone of inhibition at 50 µg/disc (Bacillus subtilis [22]): 28 mm; zone of inhibition at 25 µg/disc (Pseudomonas aeruginosa [23]): 26 mm; MIC (Klebsiella pneumoniae [24]): 25 µg/mL (≈ 70.3 µM); zone of inhibition at 100 µg/disc (Pseudomonas aeruginosa [25]): 31 mm; zone of inhibition at 12.5 µg/disc (Klebsiella pneumoniae [26]): 30 mm; MIC (Aspergillus niger [27]): 25 µg/mL (≈ 70.3 µM); MBC (Staphylococcus aureus [28]): 200 µg/mL (≈ 562 µM); zone of inhibition at 25 µg/disc (Klebsiella pneumoniae [29]): 32 mm; inhibition zone (IZ) [30]: 35 mm; zone of inhibition at 100 µg/disc (Aspergillus niger [31]): 30 mm; zone of inhibition at 25 µg/disc (Staphylococcus aureus [32]): 22 mm; zone of inhibition at 12.5 µg/disc (Pseudomonas aeruginosa [33]): 24 mm; MIC [34]: 12.5 µg/mL (≈ 35.1 µM); MFC (Penicillium chrysogenum [35]): 50 µg/mL (≈ 141 µM); Ratio (Pseudomonas aeruginosa [36]): >2; zone of inhibition at 50 µg/disc (Staphylococcus aureus [37]): 23 mm; inhibition zone (IZ) [38]: 31 mm
